Measured values: patent US20250101017A1, “SALT CRYSTAL FORM AND FREE BASE CRYSTAL FORM OF KINASE INHIBITOR” (CYTOSINLAB THERAPEUTICS CO., LTD., priority 2022, published 2025)
≈ marks a conversion by molar mass, not a printed value.

How the values were obtained:
Type in all cases: physicochemical
[1] = Solubility of crystal form Form T in different solutions at 37° C. (about 60 mg in 2 mL, 2 h and 24 h; HPLC, pH, XRPD)
Experimental: Approximately 60 mg of the sample was weighed and added into a 4 mL bottle, and 2 mL of different solvents (water, pH 1.0, 3.0, 5.0, 7.0, 9.0, FaSSIF, FeSSIF, and SGF) were added and the mixtures were stirred at 37° C. for 24 h after adding magnetic stirring bar. Samples were taken at 2 and 24 h respectively. After filtration, the sample concentration in the filtrate was tested by HPLC, and the pH value of the filtrate and the XRPD of the remaining solid were also measured. The measured solubility of the sample in different solutions was as follows.

[2] = Solid stability of crystal forms (80° C., light exposure, 25° C./60% RH, 40° C./75% RH); purity by liquid chromatography and XRPD of the solids; settings: for Crystal form: XRPD
Experimental: A certain amount of API and malate crystal form VII-A were weighed and added into a liquid phase vial, and a total of 9 parallels were prepared. The 9 parallels were placed separately in 80° C. (open); 25° C., 60% RH (open); 40° C., 75% RH (open); and light stability box closed). The stabilities under conditions of: 80° C. for one day, light exposure for 10 days, as well as 25° C., 60% RH and 40° C., 75% RH for one and two weeks were tested, and the XRPD of the solids were measured.
A certain amount of crystal form B was weighed and added into a liquid phase vial, and a total of 9 parallels were prepared. 9 parallels were placed separately in 80° C.; 25° C., 60% RH, 40° C., 75% RH; and light stability boxe.

[3] = Solubility at 37° C. in buffer solutions with different pH (about 10 mg in 1 ml, 2 h and 24 h); filtrate concentration and pH, XRPD of remaining solid; settings: for solubility at 2 h / solubility at 24 h: 37 °C, thermodynamic from solid; for solubility at 2 h: read-out: Solubility at 37° C. (mg/ml) 2 h; for solubility at 24 h: read-out: Solubility at 37° C. (mg/ml) 24 h; for pH (24 h): filtrate
Experimental: Approximately 10 mg of malate crystal form VII-A and free base Form A were weighed separately, and 1 ml of buffer solutions with different pH were added to make the solution supersaturated, and the mixtures were stirred at 37° C. for 2 h and 24 hours. The samples were filtered, and the filtrates were measured to determine the concentration and pH value, and the remaining solid was subjected to XRPD determination. The specific results were as follows: […]

`CCc1nc2c(N)ncc(-c3ccc(N4CCC(N5CCN(CC)CC5)CC4)c(OC)c3)c2nc1NC1CCOCC1` [Form T, 3-ethyl-8-(4-(4-(4-ethylpiperazin-1-yl)piperidin-1-yl)-3-methoxyphenyl)-N2-(tetrahydro-2H-pyran-4-yl) pyridino [3,4-b]pyrazine-2,5-diamine] gave a pH ([1]; FaSSIF, filtrate, 2 h) of 6.72, a pH ([1]; FaSSIF, filtrate, 24 h) of 6.73 and a pH ([1]; FeSSIF, filtrate, 2 h) of 6.50. For the same compound, the pH ([1]; FeSSIF, filtrate, 24 h) was 6.50, the pH ([1]; SGF, filtrate, 2 h) was 6.20 and the pH ([1]; SGF, filtrate, 24 h) was 6.22. The “pH of the solution compared to the initial pH value” ([1]; other solvents (water, pH 7.0, pH 9.0, FaSSIF)) was “did not change significantly”, the “crystal form of remaining solid” value ([1]; other solvents (water, pH 7.0, pH 9.0, FaSSIF), XRPD) was “did not change” and the pH ([1]; pH 1.0, filtrate, 2 h) was 5.13. The pH ([1]; pH 1.0, filtrate, 24 h) was 5.17, the “pH of the filtrate compared to the initial pH value of the buffer solution” value ([1]; pH 1.0, pH 3.0, pH 5.0, FeSSIF, and SGF) was “significant changes” and the solubility at 2 h ([1]; pH 1.0 solution, simulated gastric fluid, thermodynamic from solid, pH 1.0, 37° C., 2 h) was 28000 µg/mL (≈ 48.7 mM). It also gave a solubility at 24 h ([1]; pH 1.0 solution, simulated gastric fluid, thermodynamic from solid, pH 1.0, 37° C., 24 h) of 29300 µg/mL (≈ 51 mM), a pH ([1]; pH 3.0, filtrate, 2 h) of 6.51 and a pH ([1]; pH 3.0, filtrate, 24 h) of 6.52. For the same compound, the solubility at 2 h ([1]; pH 3.0 solution, aqueous buffer, thermodynamic from solid, pH 3.0, 37° C., 2 h) was 23100 µg/mL (≈ 40.2 mM), the solubility at 24 h ([1]; pH 3.0 solution, aqueous buffer, thermodynamic from solid, pH 3.0, 37° C., 24 h) was 23200 µg/mL (≈ 40.4 mM) and the pH ([1]; pH 5.0, filtrate, 2 h) was 6.66. It also gave a pH ([1]; pH 5.0, filtrate, 24 h) of 6.67, a solubility ([1]; pH 5.0 solution, aqueous buffer, thermodynamic from solid, 37° C., pH 5.0) of ~8000 µg/mL (≈ 13.9 mM) and a solubility at 2 h ([1]; pH 5.0 solution, aqueous buffer, thermodynamic from solid, pH 5.0, 37° C., 2 h) of 8370 µg/mL (≈ 14.6 mM). It also gave a solubility at 24 h ([1]; pH 5.0 solution, aqueous buffer, thermodynamic from solid, pH 5.0, 37° C., 24 h) of 8170 µg/mL (≈ 14.2 mM), a pH ([1]; pH 7.0, filtrate, 2 h) of 6.99 and a pH ([1]; pH 7.0, filtrate, 24 h) of 6.98. The solubility at 2 h ([1]; pH 7.0 solution, aqueous buffer, thermodynamic from solid, pH 7.0, 37° C., 2 h) was 60 µg/mL (≈ 0.104 mM), the solubility at 24 h ([1]; pH 7.0 solution, aqueous buffer, thermodynamic from solid, pH 7.0, 37° C., 24 h) was 60 µg/mL (≈ 0.104 mM) and the pH ([1]; pH 9.0, filtrate, 2 h) was 8.77. It also gave a pH ([1]; pH 9.0, filtrate, 24 h) of 8.79, a solubility at 2 h ([1]; pH 9.0 solution, aqueous buffer, thermodynamic from solid, pH 9.0, 37° C., 2 h) of 2 µg/mL (≈ 0.00348 mM) and a solubility at 24 h ([1]; pH 9.0 solution, aqueous buffer, thermodynamic from solid, pH 9.0, 37° C., 24 h) of 2 µg/mL (≈ 0.00348 mM). For the same compound, the solubility at 2 h ([1]; simulated gastric fluid, thermodynamic from solid, SGF, 37° C., 2 h) was 27600 µg/mL (≈ 48.1 mM), the solubility at 24 h ([1]; simulated gastric fluid, thermodynamic from solid, SGF, 37° C., 24 h) was 27300 µg/mL (≈ 47.5 mM) and the solubility ([1]; solutions: pH 1.0, thermodynamic from solid, 37° C., pH 1.0, pH 3.0, FeSSIF, and SGF) was > 18000 µg/mL. For the same compound, the solubility ([1]; thermodynamic from solid, 37° C., water, pH 7.0, pH 9.0, and FaSSIF) was < 700 µg/mL, the solubility at 2 h ([1]; thermodynamic from solid, FaSSIF, 37° C., 2 h) was 670 µg/mL (≈ 1.17 mM) and the solubility at 24 h ([1]; thermodynamic from solid, FaSSIF, 37° C., 24 h) was 700 µg/mL (≈ 1.22 mM). It also gave a solubility at 2 h ([1]; thermodynamic from solid, FeSSIF, 37° C., 2 h) of 18900 µg/mL (≈ 32.9 mM), a solubility at 24 h ([1]; thermodynamic from solid, FeSSIF, 37° C., 24 h) of 18700 µg/mL (≈ 32.5 mM) and a solubility at 2 h ([1]; thermodynamic from solid, water, 37° C., 2 h) of 2 µg/mL (≈ 0.00348 mM). It also gave a solubility at 24 h ([1]; thermodynamic from solid, water, 37° C., 24 h) of 3 µg/mL (≈ 0.00522 mM), a pH ([1]; water, filtrate, 2 h) of 7.20 and a pH ([1]; water, filtrate, 24 h) of 7.12.
In the case of `CCc1nc2c(N)ncc(-c3ccc(N4CCC(N5CCN(CC)CC5)CC4)c(OC)c3)c2nc1NC1CCOCC1` [Malate crystal form VII-A], the “Degradation (%)” value ([2]; 25° C., 60% RH (open), 1 week) is reported as 0.03%, the “Purity (%)” value ([2]; 25° C., 60% RH (open), 1 week) is reported as 95.81% and the Crystal form ([2]; 25° C., 60% RH (open), 1 week) is reported as “Unchanged”. The “Degradation (%)” value ([2]; 25° C., 60% RH (open), 2 weeks) was 0.32%, the “Purity (%)” value ([2]; 25° C., 60% RH (open), 2 weeks) was 95.52% and the Crystal form ([2]; 25° C., 60% RH (open), 2 weeks) was “Unchanged”. The “Degradation (%)” value ([2]; 40° C., 75% RH (open), 1 week) was 0.13%, the “Purity (%)” value ([2]; 40° C., 75% RH (open), 1 week) was 95.71% and the Crystal form ([2]; 40° C., 75% RH (open), 1 week) was “Unchanged”. The “Degradation (%)” value ([2]; 40° C., 75% RH (open), 2 weeks) was 1.06%, the “Purity (%)” value ([2]; 40° C., 75% RH (open), 2 weeks) was 94.78% and the Crystal form ([2]; 40° C., 75% RH (open), 2 weeks) was “Unchanged”. The “Degradation (%)” value ([2]; 80° C. (open), 1 day) was 0.62%, the “Purity (%)” value ([2]; 80° C. (open), 1 day) was 95.22% and the Crystal form ([2]; 80° C. (open), 1 day) was “Unchanged”. For the same compound, the “Degradation (%)” value ([2]; Light contral, 10 days) was 0.05%, the “Purity (%)” value ([2]; Light contral, 10 days) was 95.79% and the Crystal form ([2]; Light contral, 10 days) was “Unchanged”. For the same compound, the “Degradation (%)” value ([2]; Light exposure, 10 days) was 6.67%, the “Purity (%)” value ([2]; Light exposure, 10 days) was 89.17% and the Crystal form ([2]; Light exposure, 10 days) was “Unchanged”. The “Purity (%)” value ([2]; initial) was 95.84%, the Degradation ([2]; light exposure and 40° C., 75% RH) was “varying degrees of degradation” and the solubility at 2 h ([3]; FeSSIF, fessif, medium FeSSIF, 2 h) was > 10 mg/mL. For the same compound, the solubility at 24 h ([3]; FeSSIF, fessif, medium FeSSIF, 24 h) was > 10 mg/mL, the solubility at 2 h ([3]; SGF, simulated gastric fluid, medium SGF, 2 h) was > 10 mg/mL and the solubility at 24 h ([3]; SGF, simulated gastric fluid, medium SGF, 24 h) was > 10 mg/mL. For the same compound, the “pH (24 h)” value ([3]; medium FaSSIF) was 6.524, the “pH (24 h)” value ([3]; medium FeSSIF) was 5.796 and the “pH (24 h)” value ([3]; medium H2O) was 7.026. For the same compound, the “pH (24 h)” value ([3]; medium SGF) was 1.644, the “pH (24 h)” value ([3]; medium pH 1.2) was 1.605 and the “pH (24 h)” value ([3]; medium pH 3.0) was 4.601. The “pH (24 h)” value ([3]; medium pH 4.5) was 5.468, the “pH (24 h)” value ([3]; medium pH 6.8) was 6.775 and the “pH (24 h)” value ([3]; medium pH 7.4) was 7.389. The “Solubility at 37° C. (mg/ml) 2 h” value ([3]; medium FaSSIF, 2 h) was >10 mg/mL, the “Solubility at 37° C. (mg/ml) 24 h” value ([3]; medium FaSSIF, 24 h) was >10 mg/mL and the “Solubility at 37° C. (mg/ml) 2 h” value ([3]; medium H2O, 2 h) was >10 mg/mL. The “Solubility at 37° C. (mg/ml) 24 h” value ([3]; medium H2O, 24 h) was >10 mg/mL, the “Solubility at 37° C. (mg/ml) 2 h” value ([3]; medium pH 1.2, 2 h) was >10 mg/mL and the “Solubility at 37° C. (mg/ml) 24 h” value ([3]; medium pH 1.2, 24 h) was >10 mg/mL. For the same compound, the “Solubility at 37° C. (mg/ml) 2 h” value ([3]; medium pH 3.0, 2 h) was >10 mg/mL, the “Solubility at 37° C. (mg/ml) 24 h” value ([3]; medium pH 3.0, 24 h) was >10 mg/mL and the “Solubility at 37° C. (mg/ml) 2 h” value ([3]; medium pH 4.5, 2 h) was >10 mg/mL. The “Solubility at 37° C. (mg/ml) 24 h” value ([3]; medium pH 4.5, 24 h) was >10 mg/mL, the “Solubility at 37° C. (mg/ml) 2 h” value ([3]; medium pH 6.8, 2 h) was >10 mg/mL and the “Solubility at 37° C. (mg/ml) 24 h” value ([3]; medium pH 6.8, 24 h) was >10 mg/mL. The “Solubility at 37° C. (mg/ml) 2 h” value ([3]; medium pH 7.4, 2 h) was >10 mg/mL and the “Solubility at 37° C. (mg/ml) 24 h” value ([3]; medium pH 7.4, 24 h) was >10 mg/mL.
